Literature values as cited in publication PMC3986712, “Diclofenac Salts. V. Examples of Polymorphism among Diclofenac Salts with Alkyl-hydroxy Amines Studied by DSC and HSM” (Pharmaceutics, 2010).

Settings: free base (counterion), no reference given

pKa: 7.76
Structure (SMILES): NC(CO)(CO)CO [TRIS base, Tris-methylol aminomethane]
